From patent US20230313199A1, “TARGET FOR MODULATING BODY MASS” (Massachusetts Institute of Technology, priority 2020, published 2023)

What was measured:
HP motif peptide = biological target: T1, HP motif peptide (Homo sapiens, UniProt Q9UPI3); assay: Isothermal titration calorimetry of HP motif peptide binding to heme (one-site model)
T1 construct: a synthetic 14-amino acid HP motif peptide; made in house; host or cells: chemical solid-phase synthesis (Koch Institute Biopolymers & Proteomics Core)

293T cells = assay: Oxygen consumption rate, parental 293T cells; format: cell-based, human; details: 40 μM heme for 1 hour
[1] = biological target: T2, endogenous MFSD7C and HMOX1 (Mus musculus, UniProt Q91X85); assay: Co-IP of endogenous MFSD7C and HMOX1 in bone marrow-derived macrophages; format: cell-based; details: heme treatment
T2 construct: Co-IP and immunoblotting analysis of endogenous MFSD7C with ATP5h, SERCA2b and HMOX1 in bone marrow-derived macrophages; endogenous in cells; host or cells: bone marrow-derived macrophages from Mfsd7c fl/fl C57BL/6 mice
T2 sequence (Q91X85 whole entry): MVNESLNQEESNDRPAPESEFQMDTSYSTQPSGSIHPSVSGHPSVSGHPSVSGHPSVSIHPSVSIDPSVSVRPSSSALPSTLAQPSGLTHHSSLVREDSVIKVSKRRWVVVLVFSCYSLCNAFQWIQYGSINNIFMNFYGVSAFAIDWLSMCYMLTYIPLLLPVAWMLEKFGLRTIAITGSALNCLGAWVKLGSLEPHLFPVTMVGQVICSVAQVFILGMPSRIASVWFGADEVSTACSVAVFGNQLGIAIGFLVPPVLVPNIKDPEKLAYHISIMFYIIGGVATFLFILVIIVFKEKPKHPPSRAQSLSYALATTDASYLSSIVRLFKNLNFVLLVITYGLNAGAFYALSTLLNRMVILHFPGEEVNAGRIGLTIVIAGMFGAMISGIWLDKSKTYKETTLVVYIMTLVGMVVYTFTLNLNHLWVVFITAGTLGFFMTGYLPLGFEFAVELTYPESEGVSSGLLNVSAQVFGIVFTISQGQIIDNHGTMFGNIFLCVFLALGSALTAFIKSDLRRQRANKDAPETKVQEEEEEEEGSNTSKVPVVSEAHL
T2 sequence (P14901 whole entry partner): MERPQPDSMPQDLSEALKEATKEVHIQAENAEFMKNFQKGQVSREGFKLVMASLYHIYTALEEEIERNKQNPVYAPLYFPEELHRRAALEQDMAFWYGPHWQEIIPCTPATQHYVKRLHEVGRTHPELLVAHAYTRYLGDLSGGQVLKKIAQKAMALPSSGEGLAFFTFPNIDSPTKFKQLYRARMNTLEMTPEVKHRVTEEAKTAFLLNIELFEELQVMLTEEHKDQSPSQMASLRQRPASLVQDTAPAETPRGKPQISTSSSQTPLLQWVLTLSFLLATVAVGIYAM
Procedure: NTD was incubated with heme and run on Superdex 75 gel filtration column. The flow through was measured for absorbance at 230 nm (gray), 380 nm (blue), and 415 nm (green). Absorbance intensity was normalized to maximum value. […] Heme (100 μM) absorption was set to zero. […] Wildtype (WT) and mutant (Mut) peptide sequences are shown. […] Shown are representative data from five separate experiments. […] Shown are immunoblots of MFSD7C, ATP5h, SERCA2b, and HMOX1 on whole lysates or immunoblots of MFSD7C on anti-ATP5h, anti-SERCA2b and anti-HMOX1 immunoprecipitates. Representative data from one from three experiments are shown. […] Shown are representative data from three separate experiments. WCE: whole cell extract, Sup: supernatant, Mito: 10,000 g mitochondrial fraction. […] THP-1 cells were stained with MitoTracker (green), fixed and permeabilized, and then stained with rabbit polyclonal antibody specific for the C-terminus of MFSD7C, followed with Alexa Fluor® 594-labelled goat anti-rabbit antibody (red). Nuclei were labeled using DAPI (blue). […]
Differentiation of bone marrow-derived macrophage (BMDM). […] Cells were resuspended in DMEM media containing 10% FBS, 2 mM L-glutamine, 2 mM pyruvate, non-essential amino acids (100 μM each), 0.55 mM 2-mercaptoethanol, penicillin/streptomycin), passed through a 40 μm Falcon cell strainer (VWR) to remove large aggregates, and counted. […]

4B8^FL cells = assay: MMP (JC-10 kit, flow cytometry) in 4B8 cells complemented with full length MFSD7C; format: cell-based, human; details: heme 1 hour
Procedure: FIGS. 4A-4H show NTD of MFSD7C mediates heme effect on mitochondrial respiration. FIGS. 4A-4C show comparison of basal OCR (FIG. 4A), maximal OCR (FIG. 4B) and ECAR (FIG. 4C) of THP-1, 4B8, and 4B8^FL and 4B8^ΔN cells treated with vehicle or heme for 1 hour (n=18 separate experiments). […] Cells were incubated with FPT for 6 hrs, washed and reseeded in poly-lysine coated glass bottom dishes. After cells attached to the glass, medium containing 40 μM heme was added. Cells in the same field were imaged immediately and again 1 hour later. Relative FPT fluorescent intensities, normalized to THP-1, from three experiments are shown. (n=3 independent experiments). […] THP-1 cells were co-cultured with 4B8, 4B8^FL, or 4B8^ΔN in FPT solution for 6 hrs, washed and reseeded in poly-lysine coated glass bottom dishes. Cells were imaged by confocal laser-scanning microscopy. […] Representative images from three experiments are shown. Scale bar: 10 μm. […] THP-1, 4B8, 4B8^FL and 4B8^ΔN cells were treated with vehicle or heme for 1 hour and MMP was measured by using JC-10 Mitochondrial Membrane Potential Assay Kit followed by flow cytometry. […] Shown are representative Western blotting data (FIG. 4G) and quantification of band intensities from n=3 independent experiments (FIG. 4H). P-values were calculated using two-way ANOVA (*p<0.05, **p<0.01, ***p<0.005). […]

SERCA2b = SERCA2b protein level by Western blotting, THP-1 cells; format: cell-based, human; details: THP-1 cells following heme treatment vs parental THP-1 cells
Procedure: FIGS. 5A-5F show MFSD7C and heme regulate thermogenesis through SERCA2b in THP-1 cells. […] 30 hours later, MG132 was added into half of the cells and the other half was not treated. Another 35 hours later, some cells were treated with 40 μM heme for 1 hour before lysis. Cell lysates were immunoprecipitated with anti-FLAG antibody, and eluted, followed by anti-HA immunoprecipitation and elution. Total cell lysate and elute were subjected to Western blotting and probed with anti-SERCA2b or anti-MFSD7C antibodies. Shown are representative data from one of three experiments. […] 24 hrs later, cells were either not treated or treated with 10 μM MG132 for either 6 or 12 hours. The cells were lysed and subjected to FLAG pull-down and blotted with anti-MFSD7C, anti-SERCA2b and anti-ubiquitin antibodies. Shown are representative data from one of three experiments. […] Parental THP-1 cells were either not treated or treated with heme before lysis. Shown are representative data from one of four experiments. […] Shown are representative data from one of two experiments. […] Cells were washed and treated with 40 μM heme for one hour before flow cytometry. Representative FPT histograms from one of three experiments are shown. […] Shown are representative FPT histograms from one of three experiments.
Endogenous protein extraction. […]

## C=CC1=C(C)c2cc3[n-]c(cc4[n-]c(cc5nc(cc1n2)C(C)=C5C=C)c(C)c4CCC(=O)O)c(CCC(=O)O)c3C.[Fe+2] [heme]
HP motif peptide
  binding stoichiometry heme : HP motif peptide: one heme bound to one HP motif peptide
293T cells
  OCR: significantly stimulated
[1]
  interactions between endogenous MFSD7C and HMOX1 (co-IP): enhanced
4B8^FL cells
  MMP: decreased
SERCA2b
  SERCA2b level: significantly higher
